Assay results taken from patent US6583139B1, “Compounds which inhibit leukocyte adhesion mediated by VLA-4” (priority 1997, dated 2003).
Where a SMILES comes first, the peptide text is derived from it. The star is where a group is joined. Tos = Cc1ccc(S(=O)(=O)*)cc1; tBu = CC(C)(C)*

Tested on: Experimental Autoimmune (or Allergic) Encephalomyelitis
Test: Experimental Autoimmune Encephalomyelitis (EAE) model, motor impairment
Type: in vivo
Conditions: rats or guinea pigs; treatment from Day 8, bid for five days, SC, PO or IP

| Molecule | active in EAE in vivo assay (delayed the onset of symptoms, e.g. clinical scores no greater than 2 or slowed body weight loss as compared to the control) |
| --- | --- |
| Cc1ccc(S(=O)(=O)N2CCC[C@H]2C(=O)N[C@@H](Cc2ccc(OC(C)(C)C)cc2)C(=O)O)cc1 [Example 10, N-(Toluene-4-sulfonyl)-L-prolyl-4-(O-tert-butyl)-L-tyrosine] (Tos-Pro-Tyr(tBu)-OH) | active |
| N-(Toluene-4-sulfonyl)-L-(5,5-dimethyl) thiaprolyl-L-(N-benzyl)-histidine [Example 27] | active |

Tested on: not given
Test: not given
Conditions: not given

| Molecule | melting point [°C] |
| --- | --- |
| Cc1ccc(S(=O)(=O)N2CCC[C@H]2C(=O)N[C@@H](C)C(=O)O)cc1 [Example 16, N-(Toluene-4-sulfonyl)-L-prolyl-L-alanine] (Tos-Pro-Ala-OH) | 160.5 to 162.5 |
| Cc1ccc(S(=O)(=O)N2CCC[C@H]2C(=O)N[C@@H](CC(=O)O)C(=O)O)cc1 [Example 19, N-(Toluene-4-sulfonyl)-L-prolyl-L-aspartic acid] (Tos-Pro-Asp-OH) | 174 to 176 |
| Cc1ccc(S(=O)(=O)N[C@@H](CCC(=O)O)C(=O)N[C@@H](Cc2ccc(O)cc2)C(=O)O)cc1 [Example 30, N-(Toluene-4-sulfonyl)-L-glutamyl-L-tyrosine] (Tos-Glu-Tyr-OH) | 173 to 175 |
| CC(C)OC(=O)[C@H](Cc1ccc(O)cc1)NC(=O)[C@@H]1CCCN1S(=O)(=O)c1cn(C)cn1 [Example 226, N-(1-Methylimidazol-4-sulfonyl)-L-prolyl-(4-hydroxyl)-L-phenylalanine isopropyl ester] | 159 to 162 |

Next, values leading:

| melting point [°C] | Molecule |
| --- | --- |
| 106 to 110 | Cc1ccc(S(=O)(=O)N2CCC[C@H]2C(=O)N[C@@H](Cc2ccc(OCCN(Cc3ccccc3)Cc3ccccc3)cc2)C(=O)O)cc1 [Example 45, N-(Toluene-4-sulfonyl)-L-prolyl-L-O-[2-(dibenzylamino)ethyl]-tyrosine] |
| 163 to 165 | Cc1ccc(S(=O)(=O)N2CCC[C@H]2C(=O)N[C@@H](Cc2ccc(NC(=O)Nc3ccc(C#N)cc3)cc2)C(=O)O)cc1 [Example 49, N-(Toluene-4-sulfonyl)-L-prolyl-L-4-[3-(4-cyanophenyl)-ureido]-phenylalanine] |
| 145 to 150 | Cc1ccc(S(=O)(=O)N2CCC[C@H]2C(=O)N[C@@H](Cc2ccc(C(=O)N[C@@H]3Cc4ccccc4C=N3)cc2)C(=O)O)cc1 [Example 52, N-(Toluene-4-sulfonyl)-L-prolyl-L-4[(3S)-3,4-dihydro-isoquinolin-3-yl-aminocarbonyl]-phenylalanine] |
